Test results taken from patent publication US20060018826A1, “Biologic modulations with nanoparticles” (priority 2002, published 2006).

Tested on: hormone-insensitive PC3 cells
Experiment: Growth inhibition in prostate carcinoma cells
Format: cell-based
Method: In these studies, cells were seeded at 5,000 cells per untreated well.

GTCCCGACATGTCAGACAGG (antisense GTCCCGACATGTCAGACAGG; chemistry not given here) [SEQ ID NO 1, antisense 20 mer spanning the translation start site of CK2α]
IC50 as % of cisplatin's IC50: 65%
